Test results from US20200054601A1, “NOVEL METHODS” (Ethismos Research, Inc., priority 2018, published 2020).
Values belong to the compound of their own block, whether it stands above or below them.

Assays:
[1] = Qualitative solubility testing of the test article in the test system; format: physicochemical; conditions: aqueous buffer; pH 7.4, potassium phosphate buffer, MgCl2, EDTA, human liver microsomes 0.0125 mg/mL; read-out: Soluble in the test system (visual comparison)
Description: Since stability of the test article solutions is not known, the stock solution and dilutions to working solutions are prepared fresh on the day of use.

[2] = cited from earlier work
[3] = cited from earlier work; for Efficacy in MDD trials: phase 2 / phase 2b trials in MDD
CYP2A6 = target: T1, CYP2A6 (Homo sapiens, UniProt P11509); assay: Inhibition of CYP2A6 coumarin 7-hydroxylation in human liver microsomes (direct, time- and metabolism-dependent); conditions: both, pH 7.4
T1 sequence (P11509 1-494): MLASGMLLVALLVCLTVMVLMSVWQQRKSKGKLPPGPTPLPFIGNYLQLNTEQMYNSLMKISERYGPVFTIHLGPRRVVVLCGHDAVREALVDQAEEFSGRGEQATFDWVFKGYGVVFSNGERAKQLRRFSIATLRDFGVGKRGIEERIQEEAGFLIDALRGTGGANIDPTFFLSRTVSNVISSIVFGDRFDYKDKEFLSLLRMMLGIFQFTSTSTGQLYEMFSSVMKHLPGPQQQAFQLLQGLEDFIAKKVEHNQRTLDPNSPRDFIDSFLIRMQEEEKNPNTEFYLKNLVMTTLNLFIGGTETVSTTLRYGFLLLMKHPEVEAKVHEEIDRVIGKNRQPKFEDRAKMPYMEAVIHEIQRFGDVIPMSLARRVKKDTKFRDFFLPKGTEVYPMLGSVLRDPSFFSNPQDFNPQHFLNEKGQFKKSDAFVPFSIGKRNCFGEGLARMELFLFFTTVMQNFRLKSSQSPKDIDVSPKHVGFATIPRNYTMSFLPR
Description: Known direct and metabolism-dependent inhibitors of CYP2A6 are included as positive controls.
Human liver microsomes from non-transplantable, donated livers are prepared and characterized at the testing facility as outlined by Pearce, R. et al., “Effects of Freezing, Thawing, and Storing Human Liver Microsomes on Cytochrome P450 Activity,” Archives of Biochemistry and Biophysics, 1996, 331 (2), 145-169 and Parkinson, A. et al., “The Effects of Gender, Age, Ethnicity and Liver Cirrhosis on Cytochrome P450 Enzyme Activity in Human Liver Microsomes and Inducibility in Cultured Human Hepatocytes,” Toxicology and Applied Pharmacology, 2004, 199 (3), 193-209. A mixed-gender pool of 200 individual human liver microsomal samples is used for this study (Sekisui XenoTech catalog number: H2610). The kinetic constants (S50 or Km) used to select marker substrate concentrations and incubation conditions are determined previously.
Incubation mixtures are prepared in bulk to obviate the need for directly pipetting very small volumes (i.e., 1 μL or less). The test article is dissolved in water and added directly to incubation mixtures.
A Tecan liquid handling system conducts all incubations. Duplicate aliquots of the buffer mixtures are automatically added to 96-well plates at the appropriate locations. […] The supernatant fractions are analyzed by liquid chromatography tandem mass spectrometry (LC-MS/MS). […]

[4] = cited from earlier work; for Help in smoking cessation: reported, nortriptyline as the sole pharmacotherapy

solubility [1]: ≥ 200 µM
SMILES: Clc1ccc([C@]23CNC[C@H]2C3)cc1Cl [Amitifadine, (1R,5S)-1-(3,4-dichlorophenyl)-3-azabicyclo[3.1.0]hexane]
Effect size in depression ([2]; depression): 0.6
Tolerability ([2]; given by mouth twice daily for up to 12 weeks): good tolerability

SMILES: COC[C@@H]1[C@@H](c2ccc(Cl)c(Cl)c2)C[C@@H]2CC[C@H]1N2 [GSK-372475]
Efficacy in MDD trials [3]: failed

SMILES: CN1Cc2cc(-c3ccc(N)nn3)ccc2[C@H](c2ccc3ccccc3c2)C1 [Liafensine]
Efficacy in treatment resistant depression versus active comparators ([3]; two large phase 2b trials in TRD): no different from full-dose escitalopram (an SSRI) or duloxetine (an SNRI)

SMILES: CN1CCCC1c1cccnc1 (centres unmarked) [Nicotine]
inhibition at 5 min, 300 µM (CYP2A6): 82.5%

SMILES: N[C@@H]1CC[C@@H](c2ccc(Cl)c(Cl)c2)c2ccccc21 [SEP-225289]
Efficacy in MDD trials [3]: failed to differentiate versus the comparators

SMILES: CNCCC=C1c2ccccc2CCc2ccccc21 [nortriptyline]
Help in smoking cessation [4]: increases long-term smoking cessation

SMILES: c1cnc2cc3c(cc2n1)[C@@H]1CNC[C@H]3C1 [varenicline]
One year abstinence rate ([4]; smoking cessation): 23%
6-month abstinence rate ([4]; smoking cessation, placebo 10.6%): 27.6%

SMILES: COc1ccc(C(CN(C)C)C2(O)CCCCC2)cc1 (centres unmarked) [venlafaxine]
Help in smoking cessation [4]: has not been shown to help
